Data published in US20240252572A1, “ANTI-INFLAMMATORY AGENT FOR INTESTINAL CELLS OF DOMESTIC ANIMAL” (SDS BIOTECH K.K., priority 2021, published 2024).

Test system: BIE (bovine intestinal epithelial) cells
Assay: Inflammatory cytokine gene expression (RT-PCR) in LPS-stimulated bovine intestinal epithelial cells
Type: cell-based
Settings: CNSL 30 ppm, aspirin 10 ppm, single agents
Procedure: To evaluate the effect of endotoxin stimulated inflammatory reaction in the intestine, CNSL, vitamin K1 (FUJIFILM Wako Pure Chemical Corporation), or a combination thereof was added to bovine intestinal epithelial cells, the cells were cultured, and cytokine gene expression analysis was performed. Aspirin was used as a positive control. • 1. Seeding of BIE Cells • BIE (bovine intestinal epithelial) cells were seeded in a 12-well plate (manufactured by COSTAR) at 3.0×10^4 cells/well, and cultured in a CO2 incubator. • 2. […] A culture supernatant was collected, the wells were then washed with the sterilized PBS, and adherent cells were solubilized with TRIZOL, and harvested (at 9:00 p.m. on Day 5 and at 9:00 a.m. on Day 6) (12 hours or 24 hours) The sample in which TRIZOL (manufactured by INVITROGEN) is dissolved is partially purified by phenol-chloroform extraction and ethanol precipitation, and then dissolved in 10 μL of RNase-free water, and the O.D. (absorbance) of the resultant is measured with NanoDrop (manufactured by Thermo Fisher Scientific K.K.). […]

With `CC(=O)Oc1ccccc1C(=O)O` [aspirin, acetylsalicylic acid] the “action of the inflammation mediators, stimulated by endotoxin (LPS)” value was “suppress”.
